Each structure is given as a SMILES string.

Experiment [1] has as its target T1, EGFR T790M/L858R (Homo sapiens, UniProt P00533, L858R/T790M).
T1 construct: purchased Life technology (Madison, Wis.)
In words: EGFR T790M/L858R enzymatic inhibition (HTRF). The experiment is classed as biochemical. The conditions noted are these: 20 μM ATP. The protocol:
(§1) Enzyme: ALK wild-type, ALK C1156Y and ALK L1196M supplied by Carna Biosciences (Japan), EGFR T790M/L858R supplied by Life technology (Madison, Wis.).
(§2) HTRF kit: supplied by Cis-Bio International, with Eu-marked TK1 antibody, XL665- and biotin-labelled TK1 polypeptide substrates.
The compound to be tested is diluted at a gradient by 3 times thereby giving 11 gradients starting from […] to 0.017 nM for the final concentration.
10 μl EGFR T790M/L858R enzyme reaction mixture system: 0.08 nM EGFR T790M/L858R, 1 μM biotin-TK1 peptide, 20 μM ATP. Reaction buffer: 50 mM Hepes (pH7.5), 10 mM MgCl2, 0.01 mM NaV3VO4. The reaction plate was white Proxiplate 384-Plus plate (PerkinElmer). Reaction was reacted at room temperature for 60 minutes.
Detecting reaction: 10 μl testing reagent was added to the reaction plate, the final concentration of Antibody was 2 nM, XL665 was 62.5 nM. Incubation was carried out for 60 minutes at room temperature. Detection was by Envision.
(In general: Time-resolved FRET reads energy transfer from a long-lived donor to a nearby acceptor.)

Experiment [2] concerns the target T2, ALK wild-type (Homo sapiens, UniProt Q9UM73).
T2 construct: purchased Carna Biosciences (Japan)
Briefly: ALK wild-type enzymatic inhibition (HTRF). The experiment is classed as biochemical. The conditions noted are these: 30 μM ATP. The protocol:
as §1, §2
10 μl wild-type ALK enzyme reaction mixture system: 0.5 nM wild-type ALK, 1 μM biotin-TK1 peptide, 30 μM ATP. Reaction buffer: 50 mM Hepes (pH7.5), 10 mM MgCl2, 0.01 mM NaV3VO4.
(§3) Incubation was carried out for 60 minutes at room temperature. Detection was by Envision.

In experiment [3] the target is T3, ALK L1196M (Homo sapiens, UniProt Q9UM73, L1196M).
T3 construct: purchased Carna Biosciences (Japan)
T3 sequence (Q9UM73 19-1620 L1196M): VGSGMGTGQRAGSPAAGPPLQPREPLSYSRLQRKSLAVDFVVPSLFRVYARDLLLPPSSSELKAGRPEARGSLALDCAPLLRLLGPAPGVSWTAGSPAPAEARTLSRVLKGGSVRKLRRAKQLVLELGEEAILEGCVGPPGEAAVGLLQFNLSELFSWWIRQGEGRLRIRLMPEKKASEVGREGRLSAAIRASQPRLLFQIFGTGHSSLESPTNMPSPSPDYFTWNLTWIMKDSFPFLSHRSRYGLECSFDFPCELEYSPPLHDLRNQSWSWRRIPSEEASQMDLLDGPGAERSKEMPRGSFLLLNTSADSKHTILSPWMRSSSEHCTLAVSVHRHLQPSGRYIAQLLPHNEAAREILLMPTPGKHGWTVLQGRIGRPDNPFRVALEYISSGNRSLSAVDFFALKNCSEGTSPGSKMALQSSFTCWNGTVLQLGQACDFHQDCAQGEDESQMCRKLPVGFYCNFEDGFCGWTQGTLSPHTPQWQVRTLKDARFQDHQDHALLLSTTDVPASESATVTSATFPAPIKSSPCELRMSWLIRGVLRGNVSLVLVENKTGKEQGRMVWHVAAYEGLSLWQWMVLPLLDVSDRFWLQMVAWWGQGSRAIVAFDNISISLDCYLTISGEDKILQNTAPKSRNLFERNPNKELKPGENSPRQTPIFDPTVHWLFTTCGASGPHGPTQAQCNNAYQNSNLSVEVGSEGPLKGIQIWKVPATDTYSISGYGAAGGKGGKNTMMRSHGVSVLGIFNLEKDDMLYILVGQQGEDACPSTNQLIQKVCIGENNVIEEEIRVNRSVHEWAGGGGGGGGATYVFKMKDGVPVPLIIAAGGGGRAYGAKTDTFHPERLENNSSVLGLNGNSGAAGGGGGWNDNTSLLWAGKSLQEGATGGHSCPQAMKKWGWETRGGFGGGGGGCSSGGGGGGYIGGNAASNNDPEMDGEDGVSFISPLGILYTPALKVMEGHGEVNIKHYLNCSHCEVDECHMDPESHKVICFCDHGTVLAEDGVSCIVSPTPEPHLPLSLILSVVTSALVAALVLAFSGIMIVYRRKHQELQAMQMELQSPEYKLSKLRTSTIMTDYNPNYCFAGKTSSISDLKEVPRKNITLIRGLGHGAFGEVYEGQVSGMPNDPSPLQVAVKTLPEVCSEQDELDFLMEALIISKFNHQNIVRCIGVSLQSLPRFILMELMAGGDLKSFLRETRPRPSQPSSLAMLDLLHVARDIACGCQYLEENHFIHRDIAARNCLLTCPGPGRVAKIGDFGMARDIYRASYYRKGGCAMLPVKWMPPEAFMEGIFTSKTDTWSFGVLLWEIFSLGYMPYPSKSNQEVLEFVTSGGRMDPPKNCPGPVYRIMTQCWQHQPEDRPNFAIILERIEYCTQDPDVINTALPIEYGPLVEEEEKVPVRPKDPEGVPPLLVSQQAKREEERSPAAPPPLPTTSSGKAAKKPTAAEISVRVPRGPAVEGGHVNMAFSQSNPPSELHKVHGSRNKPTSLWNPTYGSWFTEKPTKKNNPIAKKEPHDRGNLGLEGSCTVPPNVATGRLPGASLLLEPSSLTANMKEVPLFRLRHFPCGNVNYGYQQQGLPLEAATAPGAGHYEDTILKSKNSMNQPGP
Briefly: ALK L1196M enzymatic inhibition (HTRF). Particulars: 30 μM ATP. The experiment is classed as biochemical. How it is done:
as §1, §2
Reaction buffer: 50 mM Hepes (pH7.5), 10 mM MgCl2, 0.01 mM NaV3VO4.
as §3

In experiment [4] the target is T4, ALK C1156Y (Homo sapiens, UniProt Q9UM73, C1156Y).
T4 construct: purchased Carna Biosciences (Japan)
T4 sequence (Q9UM73 19-1620 C1156Y): as the sequence (Q9UM73 19-1620 L1196M) above, with C1138Y, M1178L counted along it
In words: ALK C1156Y enzymatic inhibition (HTRF). The experiment is classed as biochemical. The conditions noted are these: 30 μM ATP. How it is done:
as §1, §2
Reaction buffer: 50 mM Hepes (pH7.5), 10 mM MgCl2, 0.01 mM NaV3VO4. […] Reaction was reacted at room temperature for 60 minutes.
as §3

The subject of experiment [5] is LU-01-0015 xenotransplantation (PDX) from lung cancer patients. Briefly: In vivo efficacy, LU-01-0015 xenotransplantation (PDX) from lung cancer patients. Also noted: species or system BALB/c nude mice. Particulars: 25 mg/kg orally everyday. The source says:
BALB/c nude mice, female, 6 to 8 weeks, about 18 to 22 g bodyweight, was kept in a special environment without pathogens, and a single ventilated cage (5 mice per cage). Beddings and water in all the cages were disinfected before use. […] 80 mice were supplied by Shanghai BK Laboratory Animal Co., LTD for study. Each mouse was subcutaneously implanted tumor tissue (20-30 mm^3) at right flank for growth of tumor. When the average tumor volume reached about 250-300 mm^3, the assay started. Test compounds were delivered orally everyday, 25 mg/kg. Tumor size was measured with two-dimensional caliper every 3 days, size was recorded by mm^3, and calculated by the following formula: V=V=0.5a×b2, where a and b are respectively the long diameter and short diameter length of the tumor. The antitumor efficacy was determined by dividing the average increased tumor volume in compound-treated animal by the average increased tumor volume in untreated animal.

T1 sequence (P00533 25-1210 T790M/L858R): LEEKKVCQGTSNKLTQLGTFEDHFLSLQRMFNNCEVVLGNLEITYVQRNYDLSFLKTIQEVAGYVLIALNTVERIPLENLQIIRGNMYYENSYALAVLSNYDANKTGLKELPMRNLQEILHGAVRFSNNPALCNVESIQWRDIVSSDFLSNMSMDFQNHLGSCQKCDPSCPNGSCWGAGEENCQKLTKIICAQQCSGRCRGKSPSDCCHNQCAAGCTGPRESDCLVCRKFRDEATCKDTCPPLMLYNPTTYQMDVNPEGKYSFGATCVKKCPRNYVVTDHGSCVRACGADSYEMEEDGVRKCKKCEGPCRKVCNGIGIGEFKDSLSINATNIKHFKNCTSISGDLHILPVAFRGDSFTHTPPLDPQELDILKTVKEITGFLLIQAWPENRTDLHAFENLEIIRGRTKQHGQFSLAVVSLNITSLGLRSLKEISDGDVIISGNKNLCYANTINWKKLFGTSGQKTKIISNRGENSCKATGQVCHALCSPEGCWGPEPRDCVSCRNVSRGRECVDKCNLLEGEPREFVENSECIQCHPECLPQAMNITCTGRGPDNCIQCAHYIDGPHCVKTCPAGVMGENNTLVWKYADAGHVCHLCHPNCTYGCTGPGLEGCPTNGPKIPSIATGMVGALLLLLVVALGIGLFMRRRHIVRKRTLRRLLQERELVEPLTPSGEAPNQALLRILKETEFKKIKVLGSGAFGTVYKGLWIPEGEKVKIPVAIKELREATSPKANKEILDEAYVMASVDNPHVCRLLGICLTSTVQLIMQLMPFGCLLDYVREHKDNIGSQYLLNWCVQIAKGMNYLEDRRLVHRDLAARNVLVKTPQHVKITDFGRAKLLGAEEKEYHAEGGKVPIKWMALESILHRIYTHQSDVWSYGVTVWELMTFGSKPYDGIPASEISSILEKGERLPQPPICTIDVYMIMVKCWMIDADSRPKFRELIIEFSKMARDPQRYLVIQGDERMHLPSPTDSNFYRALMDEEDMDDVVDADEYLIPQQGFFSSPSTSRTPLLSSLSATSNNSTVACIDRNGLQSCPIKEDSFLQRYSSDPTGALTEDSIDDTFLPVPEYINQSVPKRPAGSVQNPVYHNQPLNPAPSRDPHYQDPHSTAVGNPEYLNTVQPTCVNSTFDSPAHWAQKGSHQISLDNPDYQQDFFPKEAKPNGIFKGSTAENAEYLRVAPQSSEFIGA
T2 sequence (Q9UM73 19-1620): as the sequence (Q9UM73 19-1620 L1196M) above, with M1178L counted along it

In the case of `COc1cc(N2CCC3(CC2)CCN(C(C)C)CC3)ccc1Nc1ncc(Cl)c(Nc2ccccc2P(C)(C)=O)n1` [Compound 10, (2-((5-Chloro-2-((4-(9-isopropyl-3,9-diazaspiro[5.5]undecan-3-yl)-2-methoxyphenyl)amino)pyrimidin-4-yl)amino)phenyl)dimethyl phosphine oxide], the IC50 in experiment [1], in experiment [2], in experiment [3] and in experiment [4] was 1 to 100 nM throughout.
As to `COc1cc(N2CCC3(CCN(C)CC3)CC2)ccc1Nc1ncc(C(F)(F)F)c(Nc2ccccc2P(C)(C)=O)n1` [Compound 15, (2-((2-((2-Methoxy-4-(9-methyl-3,9-diazaspiro[5.5]undecan-3-yl)phenyl)amino)-5-(trifluoromethyl)pyrimidin-4-yl)amino)phenyl)dimethyl phosphine oxide], the IC50 in experiment [1] was greater than 1000 nM; in experiment [2], greater than 1000 nM; in experiment [3] it was 101 to 1000 nM; in experiment [4], greater than 1000 nM.
Consider `COc1cc(N2CCC3(CCN(C)CC3)CC2)c(Br)cc1Nc1ncc(Cl)c(Nc2ccccc2P(C)(C)=O)n1` [Compound 21, (2-((2-((5-Bromo-2-methoxy-4-(9-methyl-3,9-diazaspiro[5.5]undecan-3-yl)phenyl)amino)-5-chloropyrimidin-4-yl)amino)phenyl)dimethyl phosphine oxide], for which the IC50 in experiment [1], in experiment [2], in experiment [3] and in experiment [4] was 1 to 100 nM in each case.
As for `COc1cc(C2CC3(CCN(C)CC3)C2)c(F)cc1Nc1ncc(Cl)c(Nc2ccccc2P(C)(C)=O)n1` [Compound 29, (2-((5-Chloro-2-((5-fluoro-2-methoxy-4-(7-methyl-7-azaspiro[3.5]nonan-2-yl)phenyl)amino)pyrimidin-4-yl)amino)phenyl)dimethyl phosphine oxide], the IC50 in experiment [1], in experiment [2], in experiment [3] and in experiment [4] was 1 to 100 nM in each case.
Consider `COc1cc(N2CCC3(CCN(C)CC3)CC2)ccc1Nc1ncc(Cl)c(Oc2ccccc2P(C)(C)=O)n1` [Compound 19, (2-((5-Chloro-2-((2-methoxy-4-(9-methyl-3,9-diazaspiro[5.5]undecan-3-yl)phenyl)amino)pyrimidin-4-yl)oxy)phenyl)dimethyl phosphine oxide], for which the IC50 in experiment [1], in experiment [2], in experiment [3] and in experiment [4] was greater than 1000 nM throughout.
On to `COc1cc(N2CCC3(CCN(C)CC3)CC2)ccc1Nc1ncnc(Nc2ccccc2P(C)(C)=O)n1` [Compound 16, (2-((4-((2-Methoxy-4-(9-methyl-3,9-diazaspiro[5.5]undecan-3-yl)phenyl)amino)-1,3,5-triazin-2-yl)amino)phenyl)dimethyl phosphine oxide], for which the half-maximal inhibitory concentration (IC50) in experiment [1] was in the range of 1 to 100 nM; in experiment [2], 101 to 1000 nM; in experiment [3] it was 101 to 1000 nM; in experiment [4], 101 to 1000 nM.
In the case of `COc1cc(N2CCC3(CCN(C)CC3)CC2)ccc1Nc1ncc(Cl)c(N(C)c2ccccc2P(C)(C)=O)n1` [Compound 18, (2-((5-Chloro-2-((2-methoxy-4-(9-methyl-3,9-diazaspiro[5.5]undecan-3-yl)phenyl)amino)pyrimidin-4-yl)(methyl)amino)phenyl)dimethyl phosphine oxide], the IC50 in experiment [1], in experiment [2], in experiment [3] and in experiment [4] was greater than 1000 nM in each case.
Turning to `COc1cc(N2CCC3(CCN(C)CC3)CC2)ccc1Nc1nc(Nc2ccccc2P(C)(C)=O)c2cc[nH]c2n1` [Compound 17, (2-((2-(amino)-7H-pyrrolo[2,3-D](2-methoxy-4-(9-methyl-3,9-diazaspiro[5.5]undecan-3-yl)phenyl)pyrimidin-4-yl)amino)phenyl)dimethyl phosphine oxide], the IC50 in experiment [1], in experiment [2], in experiment [3] and in experiment [4] was 1 to 100 nM throughout.
Turning to `CN1CCC2(CCC(c3ccc(Nc4ncc(Cl)c(Nc5ccccc5P(C)(C)=O)n4)c(OC(F)F)c3)CC2)CC1` [Compound 28, (2-((5-Chloro-2-((2-(difluoromethoxy)-4-(3-methyl-3-azaspiro[5.5]undecan-9-yl)phenyl)amino)pyrimidin-4-yl)amino)phenyl)dimethyl phosphine oxide], the IC50 in experiment [1], in experiment [2], in experiment [3] and in experiment [4] was 1 to 100 nM throughout.
For the compound `COc1ccc(C2CC3(CCN(C)C3)C2)cc1Nc1ncc(Cl)c(Nc2ccccc2P(C)(C)=O)n1` (stereo not shown) [Compound 1, (2-((5-chloro-2-((2-methoxy-5-(6-methyl-6-azaspiro[3.4]octan-2-yl)phenyl)amino)pyrimidin-4-yl)amino)phenyl)dimethylphosphine oxide], the IC50 in experiment [1] was in the range of 101 to 1000 nM; in experiment [2], 1 to 100 nM; in experiment [3] it was 101 to 1000 nM; in experiment [4] it was 101 to 1000 nM.
Turning to `COc1cc(N2CCC3(CC2)CN(C)C3)ccc1Nc1ncc(Cl)c(Nc2ccccc2P(C)(C)=O)n1` [Compound 5, (2-((5-Chloro-2-((2-methoxy-4-(2-methyl-2,7-diazaspiro[3.5]nonan-7-yl)phenyl)amino)pyrimidin-4-yl)amino)phenyl)dimethyl phosphine oxide], the IC50 in experiment [1], in experiment [2], in experiment [3] and in experiment [4] was 1 to 100 nM in each case. Further, the Tumor volume in experiment [5] (3 days) is recorded as 259 mm^3; in experiment [5] (6 days), 214 mm^3; in experiment [5] (9 days), 172 mm^3; in experiment [5] (12 days) it was 117 mm^3; in experiment [5] (16 days), 104 mm^3; in experiment [5] (19 days), 123 mm^3. In addition, the Tumor volume in experiment [5] (23 days) is recorded as 124 mm^3.
For the compound `COc1cc(N2CCC3(CC2)CC(N(C)C)C3)ccc1Nc1ncc(Cl)c(Nc2ccccc2P(C)(C)=O)n1` [Compound 13, (2-((5-Chloro-2-((4-(2-(dimethylamino)-7-azaspiro[3.5]nonan-7-yl)-2-methoxyphenyl)amino)pyrimidin-4-yl)amino)phenyl)dimethyl phosphine oxide], the IC50 in experiment [1], in experiment [2], in experiment [3] and in experiment [4] was 1 to 100 nM throughout.

A word on the IC50: it is the concentration that gives 50% inhibition. High values mean lower potency, low ones higher potency.

These data come from patent US10053477B2, “Spirocyclic aryl phosphorus oxide and aryl phosphorus sulfide” (QILU PHARMACEUTICAL CO., LTD., priority 2014, dated 2018).
